Patent US11312705B2, “Heteroaryl[4,3-C]pyrimidine-5-amine derivative, preparation method therefor, and medical uses thereof” (Jiangsu Hengrui Medicine Co., Ltd., priority 2017, dated 2022)

Columns and labels:
[1] = molecular target: adenosine A2a receptor (A2aR) (Homo sapiens (Human), UniProt P29274); assay: Inhibition of adenosine A2a receptor cAMP signaling pathway (HTRF cAMP, CHO-K1/A2aR cells); type: cell-based
From the text: (§1) Test Example 1. Determination of the inhibition activity of the compounds of the present invention on the adenosine A2a receptor (A2aR) cAMP signaling pathway, the adenosine A2b receptor (A2bR) cAMP signaling pathway, the adenosine A1 receptor (A1R) cAMP signaling pathway and the adenosine A3 receptor (A3R) cAMP signaling pathway.
(§2) The inhibition activity of the compounds of the present invention on the adenosine A2a receptor cAMP signaling pathway, the adenosine A2b receptor cAMP signaling pathway, the adenosine A1 receptor cAMP signaling pathway and the adenosine A3 receptor cAMP signaling pathway was determined by the following method. The experimental method is briefly described as follows:
2.1 Adenosine A2a Receptor
CHO-K1/A2aR cells were cultured in DMEM/F12 medium containing 10% fetal bovine serum and 800 μg/ml bleomycin. The cells were digested with the cell separation buffer during the experiment. The cells were resuspended in the balanced salt buffer containing 20 mM HEPES and 0.1% bovine serum albumin and counted, and the cell density was adjusted to 10^6 cells/ml. In the 384-well plate, each well was added with 5 μl of cell suspension, and 2.5 μl of test compound (4× concentration) formulated with the balanced salt buffer containing 20 mM HEPES, 0.1% bovine serum albumin, 54 μM rolipram and 2.7 U/ml adenosine deaminase, and the plate was incubated at room temperature for 30 minutes. Each well was then added with 2.5 μl of […] (4× concentration) formulated with the balanced salt buffer containing 20 mM HEPES, 0.1% bovine serum albumin, 54 μM rolipram and 2.7 U/ml adenosine deaminase, and the plate was incubated at room temperature for 30 minutes. The final concentrations of the compounds were: 10000, 2000, 400, 80, 16, 3.2, 0.64, 0.128, 0.0256, 0.00512, and 0.001024 nM. The final concentration of […] was 20 nM. Intracellular cAMP concentration was detected with the cAMP dynamic 2 kit. cAMP-d2 and Anti-cAMP-Eu-Cryptate were diluted respectively with the cAMP lysis buffer at a ratio of 1:4. Each well was added with 5 μl of diluted cAMP-d2, followed by addition of 5 μl of diluted Anti-cAMP-Eu-Cryptate, and the plate was incubated at room temperature in the dark for 1 hour. The HTRF signal values were read by the PHERAstar multi-function microplate reader.

[2] = molecular target: adenosine A2b receptor (A2bR) (Homo sapiens (Human), UniProt P29275); assay: Inhibition of adenosine A2b receptor cAMP signaling pathway (HTRF cAMP, CHO-K1/A2bR cells); type: cell-based; details: Table 3; for IC50: CHO-K1/A2bR cells, ethyl carbazole 1 μM, cAMP HTRF; for IC50 ratio (A2bR/A2aR): selectivity A2bR over A2aR
From the text: as §1, §2
2.4 Adenosine A2b receptor (A2bR)
CHO-K1/A2bR cells were cultured in DMEM/F12 medium containing 10% fetal bovine serum and 1 mg/ml G418. The cells were digested with the cell separation buffer during the experiment. The cells were resuspended in the balanced salt buffer containing 20 mM HEPES and 0.1% bovine serum albumin and counted, and the cell density was adjusted to 10^6 cells/ml. In the 384-well plate, each well was added with 5 μl of cell suspension, and 2.5 μl of test compound (4× concentration) formulated with the balanced salt buffer containing 20 mM HEPES, 0.1% bovine serum albumin, 54 μM rolipram and 2.7 U/ml adenosine deaminase, and the plate was incubated at room temperature for 30 minutes. Each well was then added with 2.5 μl of […] (4× concentration) (Torcis, 1691/10) formulated with the balanced salt buffer containing 20 mM HEPES, 0.1% bovine serum albumin, 54 μM rolipram and 2.7 U/ml adenosine deaminase, and the plate was incubated at room temperature for 30 minutes. The final concentrations of the compounds were: 100000, 10000, 1000, 100, 10, 1, 0.1 and 0 nM. The final concentration of […] was 1 μM. Intracellular cAMP concentration was detected with the cAMP dynamic 2 kit. cAMP-d2 and Anti-cAMP-Eu-Cryptate were diluted respectively with the cAMP lysis buffer at a ratio of 1:4. Each well was added with 5 μl of diluted cAMP-d2, followed by addition of 5 μl of diluted Anti-cAMP-Eu-Cryptate, and the plate was incubated at room temperature in the dark for 1 hour. The HTRF signal values were read by the PHERAstar multi-function microplate reader.

adenosine A2a receptor (A2aR), sequence (P29274 whole entry): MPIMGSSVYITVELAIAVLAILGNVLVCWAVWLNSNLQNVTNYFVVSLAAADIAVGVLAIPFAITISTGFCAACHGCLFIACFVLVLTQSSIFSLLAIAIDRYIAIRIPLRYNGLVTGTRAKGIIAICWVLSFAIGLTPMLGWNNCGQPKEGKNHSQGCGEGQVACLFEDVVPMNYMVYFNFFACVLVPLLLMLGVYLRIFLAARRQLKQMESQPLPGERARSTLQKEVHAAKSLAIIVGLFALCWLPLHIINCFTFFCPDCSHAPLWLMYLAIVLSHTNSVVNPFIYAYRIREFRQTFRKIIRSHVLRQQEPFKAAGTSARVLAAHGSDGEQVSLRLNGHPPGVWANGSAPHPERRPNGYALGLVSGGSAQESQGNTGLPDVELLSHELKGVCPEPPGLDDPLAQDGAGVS
adenosine A2b receptor (A2bR), sequence (P29275 whole entry): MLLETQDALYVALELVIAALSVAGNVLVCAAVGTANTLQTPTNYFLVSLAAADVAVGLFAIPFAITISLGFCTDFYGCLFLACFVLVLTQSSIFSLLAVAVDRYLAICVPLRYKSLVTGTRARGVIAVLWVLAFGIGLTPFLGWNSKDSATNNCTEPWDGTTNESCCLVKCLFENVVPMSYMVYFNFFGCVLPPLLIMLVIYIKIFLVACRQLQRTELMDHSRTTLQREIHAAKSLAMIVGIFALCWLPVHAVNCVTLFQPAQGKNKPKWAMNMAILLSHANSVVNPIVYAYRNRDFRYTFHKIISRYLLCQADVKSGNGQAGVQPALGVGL

| Structure (SMILES) | IC50 ([1]; Table 1, ethyl carbazole 20 nM) | IC50 ([1]; Table 3, ethyl carbazole 20 nM) | IC50 [2] | IC50 ratio (A2bR/A2aR) [2] |
| --- | --- | --- | --- | --- |
| Cc1cc(-c2c(-c3ccc(Cl)cc3)nc(N)n3cnnc23)cc(Cl)n1 [Example 36, 8-(2-Chloro-6-methylpyridin-4-yl)-7-(4-chlorophenyl)-[1,2,4]triazolo[4,3-c]pyrimidin-5-amine] | 3.47 nM | – | – | – |
| Cc1cc(-c2c(-c3ccccc3)nc(N)n3ccnc23)cc(C)n1 [Example 31, 8-(2,6-Dimethylpyridin-4-yl)-7-phenylimidazo[1,2-c]pyrimidin-5-amine] | 0.93 nM | – | – | – |
| Nc1nc(-c2ccccc2)c(-c2ccncc2)c2nncn12 [Example 37, 7-Phenyl-8-(pyridin-4-yl)-[1,2,4]triazolo[4,3-c]pyrimidin-5-amine] | 2.11 nM | – | – | – |
| CCc1cc(-c2c(-c3ccccc3)nc(N)n3cnnc23)cc(C)n1 [Example 26, 8-(2-Ethyl-6-methylpyridin-4-yl)-7-phenyl-[1,2,4]triazolo[4,3-c]pyrimidin-5-amine] | 0.42 nM | – | – | – |
| Nc1nc(-c2ccccc2)c(-c2cc(Cl)nc(C(F)(F)F)c2)c2nncn12 [Example 23, 8-(2-Chloro-6-(trifluoromethyl)pyridin-4-yl)-7-phenyl-[1,2,4]triazolo[4,3-c]pyrimidin-5-amine] | 0.23 nM | – | – | – |
| Cc1cc(-c2c(-c3ccccc3)nc(N)n3ccnc23)cc(C(F)(F)F)n1 [Example 17, 8-(2-Methyl-6-(trifluoromethyl)pyridin-4-yl)-7-phenylimidazo[1,2-c]pyrimidin-5-amine] | 0.75 nM | – | – | – |
| Cc1cc(-c2c(-c3ccc(F)cc3F)nc(N)n3cnnc23)cc(C)n1 [Example 40, 7-(2,4-Difluorophenyl)-8-(2,6-dimethylpyridin-4-yl)-[1,2,4]triazolo[4,3-c]pyrimidin-5-amine] | 1.75 nM | – | – | – |
| Nc1nc(-c2ccccc2)c(-c2cc(C(F)(F)F)c3[nH]ncc3c2)c2nncn12 [Example 9, 7-Phenyl-8-(7-(trifluoromethyl)-1H-indazol-5-yl)-[1,2,4]triazolo[4,3-c]pyrimidin-5-amine] | 0.25 nM | – | – | – |
| Cc1cc(-c2c(-c3ccccc3)nc(N)n3cnnc23)cc(C(F)(F)F)n1 [Example 1, 8-(2-Methyl-6-(trifluoromethyl)pyridin-4-yl)-7-phenyl-[1,2,4]triazolo[4,3-c]pyrimidin-5-amine] | 0.23 nM | 0.23 nM | 58.5 nM | 254 |
| Cc1cc(-c2c(-c3ccccc3)nc(N)n3cnnc23)ccn1 [Example 12, 8-(2-Methylpyridin-4-yl)-7-phenyl-[1,2,4]triazolo[4,3-c]pyrimidin-5-amine] | 0.63 nM | – | – | – |
| Cc1cc(-c2c(-c3cccc(F)c3)nc(N)n3cnnc23)cc(C(F)(F)F)n1 [Example 29, 7-(3-Fluorophenyl)-8-(2-methyl-6-(trifluoromethyl)pyridin-4-yl)-[1,2,4]triazolo[4,3-c]pyrimidin-5-amine] | 0.55 nM | 0.55 nM | 86.3 nM | 157 |
| Cc1cc(-c2c(-c3ccc(Cl)cc3)nc(N)n3cnnc23)cc(C(F)(F)F)n1 [Example 14, 7-(4-Chlorophenyl)-8-(2-methyl-6-(trifluoromethyl)pyridin-4-yl)-[1,2,4]triazolo[4,3-c]pyrimidin-5-amine] | 1.56 nM | – | – | – |
| Cc1cc(-c2c(-c3ccc(F)cc3F)nc(N)n3cnnc23)cc(Cl)n1 [Example 34, 8-(2-Chloro-6-methylpyridin-4-yl)-7-(2,4-difluorophenyl)-[1,2,4]triazolo[4,3-c]pyrimidin-5-amine] | 2.04 nM | 2.04 nM | 170 nM | 83 |
| Cc1cc(-c2c(-c3ccc(F)cc3)nc(N)n3cnnc23)cc(C(F)(F)F)n1 [Example 16, 7-(4-Fluorophenyl)-8-(2-methyl-6-(trifluoromethyl)pyridin-4-yl)-[1,2,4]triazolo[4,3-c]pyrimidin-5-amine] | 0.63 nM | 0.63 nM | 122 nM | 194 |
| Cc1cc(-c2c(-c3ccc(F)cc3)nc(N)n3ccnc23)cc(C)n1 [Example 32, 8-(2,6-Dimethylpyridin-4-yl)-7-(4-fluorophenyl)imidazo[1,2-c]pyrimidin-5-amine] | 1 nM | – | – | – |
| Nc1nc(-c2ccccc2)c(-c2cc(F)c3[nH]ncc3c2)c2nncn12 [Example 6, 8-(7-Fluoro-1H-indazol-5-yl)-7-phenyl-[1,2,4]triazolo[4,3-c]pyrimidin-5-amine] | 0.14 nM | – | – | – |
| Cc1ccc(-c2nc(N)n3cnnc3c2-c2cc(C)nc(Cl)c2)cc1 [Example 35, 8-(2-Chloro-6-methylpyridin-4-yl)-7-(p-tolyl)-[1,2,4]triazolo[4,3-c]pyrimidin-5-amine] | 0.18 nM | – | – | – |
| Cc1cc(-c2c(-c3ccc(Cl)cc3F)nc(N)n3cnnc23)cc(Cl)n1 [Example 50, 7-(4-Chloro-2-fluorophenyl)-8-(2-chloro-6-methylpyridin-4-yl)-[1,2,4]triazolo[4,3-c]pyrimidin-5-amine] | 3.55 nM | 3.55 nM | 255 nM | 72 |
| COc1cc(-c2c(-c3ccccc3)nc(N)n3cnnc23)cc(C)n1 [Example 25, 8-(2-Methoxy-6-methylpyridin-4-yl)-7-phenyl-[1,2,4]triazolo[4,3-c]pyrimidin-5-amine] | 0.32 nM | – | – | – |
| Cc1cc(-c2c(-c3ccccc3)nc(N)n3cc(C)nc23)cc(C)n1 [Example 21, 8-(2,6-Dimethylpyridin-4-yl)-2-methyl-7-phenylimidazo[1,2-c]pyrimidin-5-amine] | 2.46 nM | – | – | – |
| Cc1cc(-c2c(-c3ccc(Cl)cc3)nc(N)n3cnnc23)cc(C)n1 [Example 54, 7-(4-Chlorophenyl)-8-(2,6-dimethylpyridin-4-yl)-[1,2,4]triazolo[4,3-c]pyrimidin-5-amine] | 0.48 nM | – | – | – |
| Cc1cc(-c2c(-c3ccccc3)nc(N)n3ccnc23)cc(Cl)n1 [Example 24, 8-(2-Chloro-6-methylpyridin-4-yl)-7-phenylimidazo[1,2-c]pyrimidin-5-amine] | 0.27 nM | – | – | – |
| Cc1cc(-c2c(-c3ccccc3F)nc(N)n3cnnc23)cc(C(F)(F)F)n1 [Example 33, 7-(2-Fluorophenyl)-8-(2-methyl-6-(trifluoromethyl)pyridin-4-yl)-[1,2,4]triazolo[4,3-c]pyrimidin-5-amine] | 1.77 nM | 1.77 nM | 134 nM | 76 |
| Cc1cc(-c2c(-c3ccccc3)nc(N)n3cnnc23)cc(C2CC2)n1 [Example 30, 8-(2-Cyclopropyl-6-methylpyridin-4-yl)-7-phenyl-[1,2,4]triazolo[4,3-c]pyrimidin-5-amine] | 0.77 nM | 0.77 nM | 70.9 nM | 92 |
| Nc1nc(-c2ccccc2)c(-c2ccnc(Cl)c2)c2nncn12 [Example 38, 8-(2-Chloropyridin-4-yl)-7-phenyl-[1,2,4]triazolo[4,3-c]pyrimidin-5-amine] | 2.18 nM | – | – | – |
| Cc1cc(-c2c(-c3ccc(Cl)cc3)nc(N)n3cnnc23)cc(CF)n1 [Example 53, 7-(4-Chlorophenyl)-8-(2-(fluoromethyl)-6-methylpyridin-4-yl)-[1,2,4]triazolo[4,3-c]pyrimidin-5-amine] | 0.35 nM | – | – | – |
| CC(C)n1cc(-c2c(-c3ccccc3)nc(N)n3cnnc23)ccc1=O [Example 43, 5-(5-Amino-7-phenyl-[1,2,4]triazolo[4,3-c]pyrimidin-8-yl)-1-isopropylpyridin-2(1H)-one] | 0.2 nM | – | – | – |
